This assay deals with biofilm. Description: electrolytic cleaning of biofilm-contaminated implant surface (laboratory test). The note with it: implants greatly covered and contaminated with a biofilm, on which tartar has also developed; relatively low dosages.

One compound from patent publication US20250204532A1, “Treatment Liquid for Cleaning an Implant Part” (Zyfoma GmbH, priority 2013, published 2025) can be followed below.

From the text: For detaching the bacteria or germs, respectively their residues or fragments, from the surface, it is provided to wet the latter with a conductive treatment liquid, charging it with current, possibly in the form of pulsed current impulses. […] Here, e.g. oil and/or chlorhexidine can be used. Furthermore, ionic liquids, which preferably contain I^−, Cl^− and/or OH^− ions, can also be used.

For `CC(=O)O` [ethanoic acid], the cleaning success entry is “good cleaning success”.
